Results reported in US20230310542A1, “EPIGENETIC MODIFIERS TO TREAT RETINAL DEGENERATIONS” (priority 2022, published 2023).

What was measured:
Type in all cases: in vivo, mouse
rd10 mice [1] = assay: Visual function by OptoMotry optomotor reflex; settings: GSK ESD
Description: A Cerebral Mechanics OptoMotry system (CerebralMechanics Inc.) was used to evaluate visual function in control and GSK ESD rd10 mice. Spatial frequency (SF) threshold and contrast sensitivity (CS) were assessed using a video camera to monitor optomotor reflex. CS was assessed at a SF of 0.092 cycles/degree. SF was assessed at 100% contrast. The CS and SF thresholds were identified as the highest values that elicited the reflexive head movement. […] CS were measured three times on PN33-35, when control mice were blind.

rd10 mice [2] = assay: Rod photoreceptor preservation in rd10 mice (photoreceptor rows in ONL, immunofluorescence)
Description: All inhibitors were diluted in 0.9% bacteriostatic sodium chloride (saline).
Retinas were fixed in 4% paraformaldehyde overnight at 4° C., washed in PBS, incubated in 5% sucrose/PBS for 30 min and then cryopreserved in 20% sucrose/PBS overnight at 4° C. Retinas were embedded in 2:1 mix of 20% sucrose and OCT (Sakura Finetek Torrance, CA) and stored at −80° C. Blocks with tissue samples were sectioned to 7-10 μm on a Cryostat Microtome HM550 (Thermo Fisher Scientific) and stored at −20° C. Antigen retrieval was performed by incubating the slides in 10 mM sodium citrate pH 6 for 30 min at 80° C. Double labeling immunohistochemistry was performed using fluorescent Alexa Fluor-conjugated secondary antibodies diluted 1:800 (Invitrogen, Carlsbad, California). Primary antibodies were diluted as follow: anti-H3K4me2 1:600, anti-H3K9me2 1:600, anti-RHO 1:50, anti-OPN1SW 1:400, anti-GFAP 1:1000, anti-IBA1 1:450 (AifI gene). […] The acquisition parameters were maintained constant for each set of experiments. Fluorescence intensity was assessed using ImageJ software (Bethesda, MD).

rod nuclei = assay: Number of heterochromatin foci in rod nuclei, rd10 mice; settings: rd10 + GSK, PN24
rd10 mice [3] = assay: GSK2879552 in artificial tears applied to the eyes of rd10 mice, rod gene expression; settings: solution in artificial tears, daily to both eyes, 5 μl
Description: A solution of GSK2879552 was prepared in artificial tears and applied daily to both eyes of rd10 mice in a volume of 5 μl.

GFAP, IBA1 = assay: Immunofluorescence labeling of GFAP and IBA1 in retina sections; settings: rd10, treated PN9 till PN24
Description: Fluorescence intensity was assessed using ImageJ software (Bethesda, MD).

WT mice retina = assay: RNA-seq of PN24 retina, WT mice; settings: GSK PN9 till PN24 vs saline; FDR<0.05, fold change >2 or <0.5
Description: RNA was extracted from PN24 retina of WT and rd10 animals treated with saline or GSK from PN9 till PN24. RNA integrity number (RIN) was measured using BioAnalyzer (Agilent Technologies) RNA 6000 Nano Kit to confirm RIN above 7 for each sample. The cDNA libraries were prepared using the Illumina® Stranded mRNA Prep, Ligation kit (Illumina) as per the manufacturer's instructions. Briefly, polyA RNA was purified from 200 ng of total RNA using oligo (dT) beads. The extracted mRNA fraction was subjected to fragmentation, reverse transcription, end repair, 3′— end adenylation, and adaptor ligation, followed by PCR amplification and SPRI bead purification (Beckman Coulter). […] The final product was assessed for its size distribution and concentration using BioAnalyzer High Sensitivity DNA Kit (Agilent Technologies). […] De-multiplexed and adapter-trimmed sequencing reads were generated using Illumina bcl2fastq (released version 2.20.0) allowing no mismatches in the index read. […] Next, alignment of the filtered reads to the mouse reference genome (mouse Ensembl release 67 (GRCm37/NCBIM37/mm9)) was done using HISAT2 (version 2.1.0) applying --no-mixed and --no-discordant options. Read counts were calculated using HTSeq by supplementing Ensembl gene annotation (release 67: “Mus_musculus.Ensembl.NCBIM37.67.gtf”). […]

Pde6b protein = assay: Anti-PDE6B Western blot of retina; settings: rd10 mice, GSK PN9 till PN24 vs saline
Description: Both retinas from one animal were flash frozen together in liquid nitrogen and stored at −80° C. Samples for SDS-PAGE were prepared by resuspended retinas in 50 μl PBS. Laemmli sample buffer was added, samples were boiled for 10 min, resolved on Criterion TGX Precast Gel AnyKD (Bio-Rad), transferred to nitrocellulose membrane, and immunoblotted with antibodies anti-H3K9me2 or anti-H3K4me2 diluted 1:5000; anti-ACTB diluted 1:10000; anti-PDE6B (1:500). Secondary goat anti-rabbit/mouse HRP (Jackson Immuno-Research Laboratory, West Grove, PA) was diluted 1:5000. An ECL western blot detection system (Thermo Fisher Scientific) was used to visualize the bound of the primary antibody.

For `O=C(O)c1ccc(CN2CCC(CN[C@@H]3C[C@H]3c3ccccc3)CC2)cc1` [GSK, GSK2879552], the “contrast sensitivity preserved relative to WT” value (rd10 mice [1]; 0.092 c/d, PN33-35) was “approximately 50%”, the “spatial frequency threshold (acuity)” value (rd10 mice [1]; 100% contrast, PN24-PN32 averaged, untreated around 0.085, WT maximum 0.4) was “around 0.240 cyc/deg” and the contrast sensitivity (rd10 mice [1]; at 0.092 c/d spatial frequency, PN33-35, WT maximum 95%) was 43.4+/−14.6%. For the same compound, the “vision preserved relative to WT acuity” value (rd10 mice [1]; rd10 mice) was “around 60%”, the “acuity over time PN24 to PN32” value (rd10 mice [1]; data not shown) was “slowly increased” and the “rows of photoreceptors remaining in the ONL” value (rd10 mice [2]; GSK 1.5 mg/kg i.p. daily, data not shown) was 5-6 rows. For the same compound, the RHO protein staining (rd10 mice [2]; GSK 4.2 mg/kg PN9 till PN24, vs saline) was “increased”, the “photoreceptor survival with dosing each second day” value (rd10 mice [2]; GSK 4.2 mg/kg each second day (ESD), PN9 till PN24) was “survived to essentially the same extent as with treatment each day” and the “rows of photoreceptors preserved in the ONL at PN24” value (rd10 mice [2]; GSK 4.2 mg/kg i.p. daily PN9 till PN24) was “more than 10 rows”. The “rod degeneration at end of short treatment” value (rd10 mice [2]; GSK from PN9 to PN17, examined at PN17) was “minimal degeneration”, the “rod degeneration one week after ending treatment” value (rd10 mice [2]; GSK from PN9 to PN17, examined at PN24) was “substantial loss of photoreceptors” and the “rod degeneration 21 days after ending treatment” value (rd10 mice [2]; GSK from PN9 to PN24, examined at PN45) was “substantial loss of cells”. The “rod degeneration, late start of treatment” value (rd10 mice [2]; GSK from PN15 to PN24, assayed at PN24) was “blocked further degeneration”, the “rod nuclei with three foci” value (rod nuclei; untreated rd10 3%) was 20% and the “rod nuclei with two foci” value (rod nuclei; untreated rd10 26%) was 45%. The “rod nuclei with one focus” value (rod nuclei; untreated rd10 72%) was 35%, the “rod specific gene expression after topical application” value (rd10 mice [3]) was “Several rod specific genes were upregulated” and the “Gfap gene expression and GFAP protein labeling (gliosis)” value (GFAP, IBA1) was “reductions in Muller cell activation”. The “IBA1 labeling (microglia)” value (GFAP, IBA1; levels remained above WT) was “decreased”, the “number of genes downregulated” value (WT mice retina) was 13 genes and the “number of genes upregulated” value (WT mice retina) was 77 genes. For the same compound, the “Pde6b protein in retina” value (Pde6b protein) was “three-fold increase”.
